Each molecule was assayed on recombinant NL4-3 virus (NLRluc, Renilla luciferase in nef, Gag P373S) (assay: HIV cell culture assay (Renilla luciferase reporter virus in MT-2 cells)). Settings: Renilla, NL43, read-out: 10% FBS EC50, 10% FBS, class symbols A/B/C.
Assay type: cell-based
Experimental: MT-2 cells and 293T cells were obtained from the NIH AIDS Research and Reference Reagent Program. MT-2 cells were propagated in RPMI 1640 media supplemented with 10% heat inactivated fetal bovine serum, […]. The 293T cells were propagated in DMEM media supplemented with 10% heat inactivated fetal bovine serum (FBS), 100 units/ml penicillin G and 100 μg/ml streptomycin. The proviral DNA clone of NL4-3 was obtained from the NIH AIDS Research and Reference Reagent Program. A recombinant NL4-3 virus, in which a section of the nef gene from NL4-3 was replaced with the Renilla luciferase gene, was used as a reference virus. In addition, residue Gag P373 was converted to P373S. Briefly, the recombinant virus was prepared by transfection of the altered proviral clone of NL4-3. Transfections were performed in 293T cells using LipofectAMINE PLUS from Invitrogen (Carlsbad, Calif.), according to manufacturer's instruction. The virus was titered in MT-2 cells using luciferase enzyme activity as a marker. Luciferase was quantitated using the Dual Luciferase kit from Promega (Madison, Wis.), with modifications to the manufacturer's protocol. The diluted Passive Lysis solution was pre-mixed with the re-suspended Luciferase Assay Reagent and the re-suspended Stop & Glo Substrate (2:1:1 ratio). Fifty (50) μL of the mixture was added to each aspirated well on assay plates and luciferase activity was measured immediately on a Wallac TriLux (Perkin-Elmer). Antiviral activities of inhibitors toward the recombinant virus were quantified by measuring luciferase activity in cells infected for 4-5 days with NLRluc recombinants in the presence serial dilutions of the inhibitor. Table 16 is the key for the data in Table 17.
In the case of `CC1(C)C(c2ccc(C(=O)O)cc2)=CC[C@]2(C)CN(C(=O)C3(c4ccccc4F)CCCC3)CC=C12` [Example A1], the EC50 is reported as > 3000 nM.
In the case of `Cc1nn(-c2ccccc2)nc1C(=O)N1CC=C2C(C)(C)C(c3ccc(C(=O)O)cc3)=CC[C@]2(C)C1` [Example A40], the EC50 is reported as > 3000 nM.
With `CC1(C)C(c2ccc(C(=O)O)cc2)=CC[C@]2(C)CN(C(=O)c3nc4ccccc4[nH]3)CC=C12` [Example A66] the EC50 was > 3000 nM.
For `CC1(C)C(c2ccc(C(=O)O)cc2)=CC[C@]2(C)CN(C(=O)[C@H]3C[C@@H]4C=C[C@H]3C4)CC=C12` [Example A86], the EC50 was > 3000 nM.
For `CC1(C)C(c2ccc(C(=O)O)cc2)=CC[C@]2(C)CN(C(=O)C3(c4ccc(F)cc4)CCCC3)CC=C12` [Example A111], the EC50 was > 3000 nM.
`CC(C)(C)OC(=O)N1CCCCC1CCC(=O)N1CCC(C(=O)N2CC=C3C(C)(C)C(c4ccc(C(=O)O)cc4)=CC[C@]3(C)C2)(c2ccccc2)CC1` (stereo partly shown) [Example A168] was tested, and the EC50 was < 500 nM.
In the case of `CC(C)S(=O)(=O)N1CCC(C(=O)N2CC=C3C(C)(C)C(c4ccc(C(=O)O)cc4)=CC[C@]3(C)C2)(c2ccccc2)CC1` [Example A195], the EC50 is reported as < 500 nM.
With `Cc1cc2nc(-c3ccccc3C(=O)N3CC=C4C(C)(C)C(c5ccc(C(=O)O)cc5)=CC[C@]4(C)C3)[nH]c2cc1Cl` [Example A254] the EC50 was < 500 nM.
In the case of `CC1(C)C(c2ccc(C(=O)O)cc2)=CC[C@]2(C)CN(C(=O)c3ccccc3-c3nc4cc(Cl)c(Cl)cc4[nH]3)CC=C12` [Example A265], the EC50 is reported as < 500 nM.
With `CC1(C)C(c2ccc(C(=O)O)cc2)=CC[C@]2(C)CN(C(=O)c3ccccc3-c3nc4c(F)cccc4[nH]3)CC=C12` [Example A266] the EC50 was < 500 nM.
Work on `CC1(C)C(c2ccc(C(=O)O)cc2)=CC[C@]2(C)CN(C(=O)c3ccccc3-c3nc4cc(F)c(F)cc4[nH]3)CC=C12` [Example A267] yielded an EC50 of 500 to 3000 nM.
For `Cc1cc(Cl)cc2[nH]c(-c3ccccc3C(=O)N3CC=C4C(C)(C)C(c5ccc(C(=O)O)cc5)=CC[C@]4(C)C3)nc12` [Example A271], the EC50 was < 500 nM.
`CC1(C)C(c2ccc(C(=O)O)cc2)=CC[C@]2(C)CN(C(=O)c3ccccc3-c3nc4c([N+](=O)[O-])cccc4[nH]3)CC=C12` [Example A272] was tested, and the EC50 was < 500 nM.
For `Cn1c(-c2ccccc2C(=O)N2CC=C3C(C)(C)C(c4ccc(C(=O)O)cc4)=CC[C@]3(C)C2)nc2ccccc21` [Example A274], the EC50 was > 3000 nM.
In the case of `CCn1c(-c2ccccc2C(=O)N2CC=C3C(C)(C)C(c4ccc(C(=O)O)cc4)=CC[C@]3(C)C2)nc2cc(S(C)(=O)=O)ccc21` [Example A286], the EC50 is reported as > 3000 nM.
With `CC1(C)C(c2ccc(C(=O)O)cc2)=CC[C@]2(C)CN(C(=O)c3ccccc3-c3nc4cc(C(=O)O)ccc4n3Cc3ccccc3)CC=C12` [Example A290] the EC50 was > 3000 nM.
`CC1(C)C(c2ccc(C(=O)O)cc2)=CC[C@]2(C)CN(C(=O)c3ccccc3-c3nc4cc(C(=O)O)ccc4n3Cc3cccnc3)CC=C12` [Example A293] was tested, and the EC50 was > 3000 nM.
`CC(=O)NCCn1c(-c2ccccc2C(=O)N2CC=C3C(C)(C)C(c4ccc(C(=O)O)cc4)=CC[C@]3(C)C2)nc2cc(C(=O)O)ccc21` [Example A294] was tested, and the EC50 was > 3000 nM.
For `COCCn1c(-c2ccccc2C(=O)N2CC=C3C(C)(C)C(c4ccc(C(=O)O)cc4)=CC[C@]3(C)C2)nc2cc(C(=O)O)ccc21` [Example A296], the EC50 was > 3000 nM.
With `COc1ccc(OC)c2[nH]c(-c3ccccc3C(=O)N3CC=C4C(C)(C)C(c5ccc(C(=O)O)cc5)=CC[C@]4(C)C3)nc12` [Example A299] the EC50 was < 500 nM.
Work on `CC1(C)C(c2ccc(C(=O)O)cc2)=CC[C@]2(C)CN(C(=O)c3ccccc3-c3nc4ccc(F)c(F)c4o3)CC=C12` [Example A314] yielded an EC50 of 500 to 3000 nM.
`CC1(C)C(c2ccc(C(=O)O)cc2)=CC[C@]2(C)CN(C(=O)c3ccccc3-c3nc4ccc(Cl)cc4o3)CC=C12` [Example A318] was tested, and the EC50 was < 500 nM.

Same assay, conditions: Renilla, NL43, read-out: 10% FBS EC50, 10% FBS, numeric values
`CC1(C)C(c2ccc(C(=O)O)cc2)=CC[C@@]2(C)CN(C(=O)c3cccc4c3C(=O)c3ccccc3-4)CC=C12` [Example A30] showed an EC50 of 1080 nM.
`CC(C)[C@H]1CC[C@H](C)C[C@@H]1OC(=O)c1ccccc1C(=O)N1CC=C2C(C)(C)C(c3ccc(C(=O)O)cc3)=CC[C@]2(C)C1` [Example A36] showed an EC50 of 380 nM.
For `CCOc1cccc2cc(C(=O)N3CC=C4C(C)(C)C(c5ccc(C(=O)O)cc5)=CC[C@]4(C)C3)oc12` [Example A46], the EC50 was 1320 nM.
`CC1(C)C(c2ccc(C(=O)O)cc2)=CC[C@]2(C)CN(C(=O)c3ccccc3-n3cccn3)CC=C12` [Example A58] was tested, and the EC50 was 1850 nM.
Molecule `CC1(C)C(c2ccc(C(=O)O)cc2)=CC[C@]2(C)CN(C(=O)c3ccccc3-c3ccc(C#N)cc3)CC=C12` [Example A71] has an EC50 of 1300 nM.
`Cn1nc(-c2ccccc2)c(C(=O)N2CC=C3C(C)(C)C(c4ccc(C(=O)O)cc4)=CC[C@]3(C)C2)c1Cl` [Example A79] showed an EC50 of 870 nM.
Molecule `CC1(C)C(c2ccc(C(=O)O)cc2)=CC[C@]2(C)CN(C(=O)c3c(-c4ccccc4)nc4ccccn34)CC=C12` [Example A91] has an EC50 of 711 nM.
Work on `CC1(C)C(c2ccc(C(=O)O)cc2)=CC[C@]2(C)CN(C(=O)c3[nH]c4ccccc4c3-c3ccccc3)CC=C12` [Example A112] yielded an EC50 of 1100 nM.
Work on `CC1(C)C(c2ccc(C(=O)O)cc2)=CC[C@]2(C)CN(C(=O)c3ccccc3-c3nc4ccccc4[nH]3)CC=C12` [Example A114] yielded an EC50 of 52 nM.
`C[C@@H](OC(C)(C)C)[C@H](NC(=O)OC(C)(C)C)C(=O)N1CCC(C(=O)N2CC=C3C(C)(C)C(c4ccc(C(=O)O)cc4)=CC[C@]3(C)C2)(c2ccccc2)CC1` [Example A185] was tested, and the EC50 was 123 nM.
Work on `CC1(C)C(c2ccc(C(=O)O)cc2)=CC[C@]2(C)CN(C(=O)C3(c4ccccc4)CCN(S(=O)(=O)CCCCl)CC3)CC=C12` [Example A197] yielded an EC50 of 147 nM.
`CC(C)(C)OC(=O)N1CSC[C@@H]1C(=O)N1CCC(C(=O)N2CC=C3C(C)(C)C(c4ccc(C(=O)O)cc4)=CC[C@]3(C)C2)(c2ccccc2)CC1` [Example A204] showed an EC50 of 309 nM.
In the case of `CC(C)(C)OC(=O)N[C@H](C(=O)N1CCC(C(=O)N2CC=C3C(C)(C)C(c4ccc(C(=O)O)cc4)=CC[C@]3(C)C2)(c2ccccc2)CC1)C(C)(C)C` [Example A219], the EC50 is reported as 150 nM.
Work on `CC1(C)C(c2ccc(C(=O)O)cc2)=CC[C@]2(C)CN(C(=O)c3ccccc3-c3nc4cc(F)c(Cl)cc4[nH]3)CC=C12` [Example A260] yielded an EC50 of 298 nM.
Molecule `CC1(C)C(c2ccc(C(=O)O)cc2)=CC[C@]2(C)CN(C(=O)c3ccccc3-c3nc4c(Cl)cc(Cl)cc4[nH]3)CC=C12` [Example A268] has an EC50 of 14 nM.
Molecule `CC1(C)C(c2ccc(C(=O)O)cc2)=CC[C@]2(C)CN(C(=O)c3ccccc3-c3nc4c(Cl)cccc4[nH]3)CC=C12` [Example A270] has an EC50 of 14 nM.
In the case of `CC1(C)C(c2ccc(C(=O)O)cc2)=CC[C@]2(C)CN(C(=O)c3ccccc3-c3nc4cc([N+](=O)[O-])ccc4[nH]3)CC=C12` [Example A273], the EC50 is reported as 63 nM.
`CC1(C)C(c2ccc(C(=O)O)cc2)=CC[C@]2(C)CN(C(=O)c3ccccc3-c3nc4ccccc4n3CC34CCN(CC3)CC4)CC=C12` [Example A275] showed an EC50 of 1700 nM.
In the case of `CC1(C)C(c2ccc(C(=O)O)cc2)=CC[C@]2(C)CN(C(=O)c3ccccc3-c3nc4cc(Cl)c(Cl)cc4n3CCc3ccccc3)CC=C12` [Example A277], the EC50 is reported as 2250 nM.
For `Cc1ncc(C)n2nc(-c3ccc4c(c3)nc(-c3ccccc3C(=O)N3CC=C5C(C)(C)C(c6ccc(C(=O)O)cc6)=CC[C@]5(C)C3)n4C)nc12` [Example A278], the EC50 was 4960 nM.
With `CC1(C)C(c2ccc(C(=O)O)cc2)=CC[C@]2(C)CN(C(=O)c3ccccc3-c3nc4ccccc4n3-c3ccccc3)CC=C12` [Example A279] the EC50 was 390 nM.
Work on `CC1(C)C(c2ccc(C(=O)O)cc2)=CC[C@]2(C)CN(C(=O)c3ccccc3-c3nc4ccccc4n3C3CCN(Cc4ccccc4)CC3)CC=C12` [Example A280] yielded an EC50 of 550 nM.
Molecule `CC1(C)C(c2ccc(C(=O)O)cc2)=CC[C@]2(C)CN(C(=O)c3ccccc3-c3nc4cc(C(=O)c5ccccc5)ccc4[nH]3)CC=C12` [Example A281] has an EC50 of 950 nM.
`CC(C)(C)OC(=O)NCCn1c(-c2ccccc2C(=O)N2CC=C3C(C)(C)C(c4ccc(C(=O)O)cc4)=CC[C@]3(C)C2)nc2cc(C(F)(F)F)ccc21` [Example A283] was tested, and the EC50 was 1370 nM.
With `CC1(C)C(c2ccc(C(=O)O)cc2)=CC[C@]2(C)CN(C(=O)c3ccccc3-c3nc4cc5c(cc4[nH]3)OCO5)CC=C12` [Example A298] the EC50 was 60 nM.
In the case of `Cc1ccc2oc(-c3ccccc3C(=O)N3CC=C4C(C)(C)C(c5ccc(C(=O)O)cc5)=CC[C@]4(C)C3)nc2c1` [Example A309], the EC50 is reported as 171 nM.
Work on `COc1cccc2oc(-c3ccccc3C(=O)N3CC=C4C(C)(C)C(c5ccc(C(=O)O)cc5)=CC[C@]4(C)C3)nc12` [Example A311] yielded an EC50 of 218 nM.
`CC1(C)C(c2ccc(C(=O)O)cc2)=CC[C@]2(C)CN(C(=O)c3ccccc3-c3nc4cc(Br)ccc4o3)CC=C12` [Example A315] gave an EC50 of 127 nM.
For `COc1ccc2oc(-c3ccccc3C(=O)N3CC=C4C(C)(C)C(c5ccc(C(=O)O)cc5)=CC[C@]4(C)C3)nc2c1` [Example A320], the EC50 was 183 nM.

Same assay, conditions: read-out: 10% FBS EC50, 10% FBS, numeric values
`CN1Cc2c(ccc3nc(-c4ccccc4C(=O)N4CC=C5C(C)(C)C(c6ccc(C(=O)O)cc6)=CC[C@]5(C)C4)[nH]c23)C(c2ccccc2)C1` (stereo partly shown) [Example 101] was tested, and the EC50 was 2980 nM.
